In brackets after ≈: the same amount, converted by molar mass.
Assays:
E. f. 180-1 = test: standard broth micro-dilution MIC; format: cell-based; conditions: Table 2B; strain 180-1
Procedure: (§1) The antibacterial efficacy of the present teicoplanin derivatives is illustrated by the following tables. The minimal inhibitory concentrations (MICs) were determined using a standard broth micro-dilution assay.

E. f. 180 = test: standard broth micro-dilution MIC; format: cell-based; conditions: Table 2B; strain 180
Procedure: as §1

E. f. 2041 = test: standard broth micro-dilution MIC; format: cell-based; conditions: Table 2B; strain 2041
Procedure: as §1

E. f. 276 = test: standard broth micro-dilution MIC; format: cell-based; conditions: Table 2C; strain 276
Procedure: as §1

E. gall. 245 = test: standard broth micro-dilution MIC; format: cell-based; conditions: Table 2C; strain 245
Procedure: as §1

EC14 = test: standard broth micro-dilution MIC; format: cell-based; conditions: Table 2C; strain EC14
Procedure: as §1

H. influ RD = test: standard broth micro-dilution MIC; format: cell-based; conditions: Table 2C; strain RD
Procedure: as §1

M. cat M12 = test: standard broth micro-dilution MIC; format: cell-based; conditions: Table 2C; strain M12
Procedure: as §1

S. aureus 446 = test: standard broth micro-dilution MIC; format: cell-based; conditions: Table 2A; strain 446
Procedure: as §1

S. aureus 447 = test: standard broth micro-dilution MIC; format: cell-based; conditions: Table 2A; strain 447
Procedure: as §1

S. aureus 489 = test: standard broth micro-dilution MIC; format: cell-based; conditions: Table 2A; strain 489
Procedure: as §1

S. aureus 491 = test: standard broth micro-dilution MIC; format: cell-based; conditions: Table 2A; strain 491
Procedure: as §1

S. aureus S13E = test: standard broth micro-dilution MIC; format: cell-based; conditions: Table 2A; strain S13E
Procedure: as §1

S. aureus SA1199B = test: standard broth micro-dilution MIC; format: cell-based; conditions: Table 2B; strain SA1199B
Procedure: as §1

S. aureus SA1199R = test: standard broth micro-dilution MIC; format: cell-based; conditions: Table 2B; strain SA1199R
Procedure: as §1

S. aureus SA1199 = test: standard broth micro-dilution MIC; format: cell-based; conditions: Table 2A; strain SA1199
Procedure: as §1

S. aureus X400 = test: standard broth micro-dilution MIC; format: cell-based; conditions: Table 2A; strain X400
Procedure: as §1

S. aureus X778 = test: standard broth micro-dilution MIC; format: cell-based; conditions: Table 2A; strain X778
Procedure: as §1

S. epi 270 = test: standard broth micro-dilution MIC; format: cell-based; conditions: Table 2B; strain 270
Procedure: as §1

S. h. 105 = test: standard broth micro-dilution MIC; format: cell-based; conditions: Table 2B; strain 105
Procedure: as §1

S. h. 415 = test: standard broth micro-dilution MIC; format: cell-based; conditions: Table 2B; strain 415
Procedure: as §1

St. pneumo P1 = test: standard broth micro-dilution MIC; format: cell-based; conditions: Table 2C; strain P1
Procedure: as §1

St. pyro C203 = test: standard broth micro-dilution MIC; format: cell-based; conditions: Table 2C; strain C203
Procedure: as §1

H. influR D/BL+ = format: cell-based, H. influ; conditions: Table 2C; strain RD/BL+
Procedure: as §1

[1] = system: vancomycin-resistant enterococci; test: mean geometric MIC, vancomycin-resistant enterococci, broth micro-dilution; format: cell-based, Enterococcus faecium and Enterococcus faecalis; conditions: Table 3, representative vancomycin-resistant enterococci
Procedure: as §1

[2] = system: vancomycin-sensitive enterococci; test: mean geometric MIC, vancomycin-sensitive enterococci, broth micro-dilution; format: cell-based, Enterococcus faecium and Enterococcus faecalis; conditions: Table 3, representative vancomycin-sensitive enterococci
Procedure: as §1

Row | Compound | MIC E. f. 180-1 (E. f. 180-1) | MIC E. f. 180 (E. f. 180) | MIC E. f. 2041 (E. f. 2041) | MIC E. f. 276 (E. f. 276) | MIC E. gall. 245 (E. gall. 245) | MIC EC14 (EC14) | MIC H. influ RD (H. influ RD) | MIC M. cat M12 (M. cat M12) | MIC S. aureus 446 (S. aureus 446) | MIC S. aureus 447 (S. aureus 447) | MIC S. aureus 489 (S. aureus 489) | MIC S. aureus 491 (S. aureus 491) | MIC S. aureus S13E (S. aureus S13E) | MIC S. aureus SA1199B (S. aureus SA1199B) | MIC S. aureus SA1199R (S. aureus SA1199R) | MIC S. aureus SA1199 (S. aureus SA1199) | MIC S. aureus X400 (S. aureus X400) | MIC S. aureus X778 (S. aureus X778) | MIC S. epi 270 (S. epi 270) | MIC S. h. 105 (S. h. 105) | further results
1 | CCCCc1ccc(CNC2C(=O)NC3Cc4ccc(c(Cl)c4)Oc4cc5cc(c4OC4OC(CO)C(O)C(O)C4NCc4ccc(CCCC)cc4)Oc4ccc(cc4Cl)C(OC4OC(CO)C(O)C(O)C4NC(C)=O)C4NC(=O)C(NC(=O)C5NC(=O)C(NC3=O)c3cc(O)cc(c3)Oc3cc2ccc3O)c2ccc(O)c(c2)-c2c(OC3OC(CO)C(O)C(O)C3O)cc(O)cc2C(C(=O)O)NC4=O)cc1 (stereo not shown) [Example 5] | ≤ .06 µg/mL | ≤ .06 µg/mL | ≤ .06 µg/mL | ≤ .06 µg/mL | ≤ .06 µg/mL | > 64 µg/mL | 64 µg/mL (≈ 31.7 µM) | ≤ .06 µg/mL | 0.5 µg/mL (≈ 0.248 µM) | 0.5 µg/mL (≈ 0.248 µM) | 0.5 µg/mL (≈ 0.248 µM) | 0.25 µg/mL (≈ 0.124 µM) | 1 µg/mL (≈ 0.496 µM) | 0.25 µg/mL (≈ 0.124 µM) | ≤ .06 µg/mL | 0.25 µg/mL (≈ 0.124 µM) | 0.25 µg/mL (≈ 0.124 µM) | 0.25 µg/mL (≈ 0.124 µM) | 0.25 µg/mL (≈ 0.124 µM) | 0.125 µg/mL (≈ 0.0619 µM) | MIC S. h. 415 (S. h. 415): 4 µg/mL (≈ 1.98 µM); MIC St. pneumo P1 (St. pneumo P1): ≤ .06 µg/mL; MIC St. pyro C203 (St. pyro C203): ≤ .06 µg/mL; MIC H. influR D/BL+ (H. influR D/BL+): 1 µg/mL (≈ 0.496 µM); Resist. MIC [1]: 0.84 µg/mL; Sens. MIC [2]: 0.25 µg/mL
2 | CC(=O)NC1C(OC2c3ccc(c(Cl)c3)Oc3cc4cc(c3OC3OC(CO)C(O)C(O)C3NCc3ccc5ccccc5c3)Oc3ccc(cc3Cl)CC3NC(=O)C(NCc5ccc6ccccc6c5)c5ccc(O)c(c5)Oc5cc(O)cc(c5)C(NC3=O)C(=O)NC4C(=O)NC3C(=O)NC2C(=O)NC(C(=O)O)c2cc(O)cc(OC4OC(CO)C(O)C(O)C4O)c2-c2cc3ccc2O)OC(CO)C(O)C1O (stereo not shown) [Example 6] | ≤ .06 µg/mL | 0.25 µg/mL (≈ 0.125 µM) | ≤ .06 µg/mL | ≤ .06 µg/mL | ≤ .06 µg/mL | > 64 µg/mL | 16 µg/mL (≈ 7.98 µM) | ≤ .06 µg/mL | ≤ .06 µg/mL | ≤ .06 µg/mL | ≤ .06 µg/mL | ≤ .06 µg/mL | ≤ .06 µg/mL | ≤ .06 µg/mL | ≤ .06 µg/mL | ≤ .06 µg/mL | ≤ .06 µg/mL | ≤ .06 µg/mL | ≤ .06 µg/mL | ≤ .06 µg/mL | MIC S. h. 415 (S. h. 415): 4 µg/mL (≈ 1.99 µM); MIC St. pneumo P1 (St. pneumo P1): ≤ .06 µg/mL; MIC St. pyro C203 (St. pyro C203): ≤ .06 µg/mL; MIC H. influR D/BL+ (H. influR D/BL+): 1 µg/mL (≈ 0.499 µM); Resist. MIC [1]: 3.4 µg/mL; Sens. MIC [2]: 0.11 µg/mL
